What was measured:
Experiment in all cases: Test B postemergence plant response
Type in all cases: in vivo
[1] = test system: chickweed (Stellaria media); details: for Chickweed plant response rating: 8 g ai/ha, postemergence, 0-100 scale; for Plant response rating, Chickweed: Postemergence
Method in brief: (§1)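 Visual injury score from 0 (none) to 100 (complete control) versus controls, taken 13 to 15 days after treatment in the greenhouse; chemicals applied postemergence, as formulated, to plants of 1- to 4-leaf stage (2 to 18 cm tall); dash denotes no test result.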

[2] = test system: canarygrass (Phalaris minor); details: for Canarygrass plant response rating: 8 g ai/ha, postemergence, 0-100 scale; for Plant response rating, Canarygrass: Postemergence
Method in brief: as §1

[3] = test system: windgrass (Apera spica-venti); details: for Windgrass plant response rating: postemergence, 0-100 scale; for Plant response rating, Windgrass: Postemergence
Method in brief: as §1

[4] = test system: winter barley (Hordeum vulgare); details: for Barley plant response rating: 8 g ai/ha, postemergence, 0-100 scale; for Plant response rating, Barley: Postemergence, scale 0 to 100, 0 no effect, 100 complete control
Method in brief: as §1

[5] = 62 g ai/ha, scale 0 to 100, 0 no effect, 100 complete control

Row | Compound | Chickweed plant response rating [1] | Plant response rating, Chickweed ([1]; 16 g ai/ha, scale 0 to 100) | Plant response rating, Chickweed ([1]; 31 g ai/ha, scale 0 to 100) | Plant response rating, Chickweed [1, 5] | Canarygrass plant response rating [2] | Plant response rating, Canarygrass ([2]; 16 g ai/ha, scale 0 to 100) | Plant response rating, Canarygrass ([2]; 31 g ai/ha, scale 0 to 100) | Plant response rating, Canarygrass [2, 5] | Windgrass plant response rating ([3]; 8 g ai/ha) | Windgrass plant response rating ([3]; 16 g ai/ha) | Plant response rating, Windgrass ([3]; 31 g ai/ha, scale 0 to 100) | Plant response rating, Windgrass [3, 5] | Barley plant response rating [4] | Plant response rating, Barley ([4]; 16 g ai/ha) | Plant response rating, Barley ([4]; 31 g ai/ha) | Plant response rating, Barley ([4]; 62 g ai/ha)
1 | COCc1cc(-c2ccc(Br)cc2)nn1-c1c(O)cnn(C)c1=O [Compound 68] | 0 | 0 | 0 | 0 | 0 | 0 | 0 | 10 | 0 | 0 | 0 | 35 | 0 | 0 | 0 | 0
2 | Cc1cc(-c2ccc(Cl)cc2)nn1-c1c(OC(=S)N(C)C)cnn(C)c1=O [Compound 69] | 0 | 0 | 0 | 0 | 0 | 0 | 0 | 0 | 0 | 0 | 10 | 40 | 0 | 0 | 0 | 0
3 | Cc1cc(-c2ccc(Br)cc2)nn1-c1c(OC(=O)C2CC2)cnn(C(=O)C2CC2)c1=O [Compound 80, 5-[3-(4-bromophenyl)-5-methyl-1H-pyrazol-1-yl]-1-(cyclopropylcarbonyl)-1,6-dihydro-6-oxo-4-pyridazinyl cyclopropanecarboxylate] | 0 | 0 | 0 | 0 | 90 | 98 | 100 | 100 | 30 | 40 | 60 | 70 | 30 | 60 | 95 | 98

Source: patent publication US20100267561A1, “HERBICIDAL PYRIDAZINONE DERIVATIVES” (priority 2007, published 2010)
